Measurements taken from US20260216348A1, “IRAK DEGRADATION AGENT AND USE THEREOF” (Increland, priority 2023, published 2026).
pIC50: −log10 of the molar value.

Assays:
[1] = test system: LPS/IL-1β-induced IL-6 secretion in human peripheral blood mononuclear cells (PBMCs); assay: Inhibition of LPS/IL-1β-induced IL-6 secretion in human PBMCs (IL-6 ELISA); format: cell-based; settings: PBMC, LPS 10 ng/mL + IL-1β 20 ng/mL, 24 h pre-incubation, 20 h stimulation
Procedure, shortened: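 IC50 values come from fitted curves of IL-6 levels, determined by ELISA (OD450, standard curve) in supernatants diluted 200-fold. Human PBMCs received 5-fold serial compound dilutions (top 1 μM) for 24 h before a 20 h challenge with final 10 ng/mL LPS and 20 ng/mL IL-1β, 37 °C, 5% CO2.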

[2] = target: T1, IRAK4 (Homo sapiens, UniProt Q9NWZ3); assay: IRAK4 protein degradation in THP1 cells (Western blot); format: cell-based; settings: THP-1 cells, 24 h
T1 construct: Effect of the Compounds on IRAK4 Protein Degradation in THP1 Cells; endogenous in cells; host or cells: THP-1 cells
T1 sequence (Q9NWZ3 1-460): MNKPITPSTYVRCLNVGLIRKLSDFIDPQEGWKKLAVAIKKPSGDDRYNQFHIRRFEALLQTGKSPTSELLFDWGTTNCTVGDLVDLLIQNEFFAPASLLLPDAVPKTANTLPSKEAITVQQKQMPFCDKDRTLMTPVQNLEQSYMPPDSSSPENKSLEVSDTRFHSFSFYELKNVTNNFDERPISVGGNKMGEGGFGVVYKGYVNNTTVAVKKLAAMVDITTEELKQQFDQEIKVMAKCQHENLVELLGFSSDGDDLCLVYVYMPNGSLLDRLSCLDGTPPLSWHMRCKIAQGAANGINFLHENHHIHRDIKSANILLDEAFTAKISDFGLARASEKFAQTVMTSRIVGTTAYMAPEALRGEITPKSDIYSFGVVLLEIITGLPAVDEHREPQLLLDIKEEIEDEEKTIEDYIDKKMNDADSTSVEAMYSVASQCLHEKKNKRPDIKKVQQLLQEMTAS
Procedure, shortened: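 THP-1 cells (2×10^5/well) were treated with 5-fold serial compound dilutions for 24 h at 37 °C, then lysed with proteasome/phosphatase inhibitors. IRAK4 was detected by Western blot with chemiluminescence and semi-quantified by densitometry. DC50 came from the concentration–response.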

[3] = Metabolic stability in human liver microsome; format: in vitro ADME; settings: liver microsomes, NADPH, 60 min, read-out: Human liver microsome (t1/2, min)
Description: Clean incubation plates T60 and NCF60 were preheated at 37° C. for 10 min. Liver microsomes were diluted to a concentration of 0.56 mg/mL with 100 mM phosphate buffer, and 445 μL of the microsome working solution (0.56 mg/mL) was transferred to the preheated incubation plates T60 and NCF60, followed by incubation of the plates T60 and NCF60 with continuous shaking at 37° C. for 10 min. After incubation, 54 μL of liver microsomes were transferred to a blank plate, 6 μL of NAPDH cofactor was added to the blank plate, and then 180 μL of quenching solution was added to the blank plate. 5 μL of the compound working solution (100 μM) was added to the microsome-containing incubation plates T60 and NCF60, and mixed thoroughly 3 times. For plate NCF60, 50 μL of buffer was added and the system was mixed thoroughly 3 times before timing was started, and the plate was incubated with shaking at 37° C. for 60 min. For the quenching plate, 180 μL of quenching solution and 6 μL of NADPH cofactor were added, and the plate was ensured to be cooled to prevent evaporation. For the T60 plate, the mixture was thoroughly mixed 3 times, and 54 μL of the mixture was immediately transferred to the quenching plate at the time point of 0 min. Then 44 μL of the NAPDH cofactor was added to the incubation plate (T60). Timing was started, and the plate was incubated with shaking at 37° C. for 60 min. At the time points of 5, 15, 30, 45, and 60 min, 180 μL of the quenching solution was added to the quenching plate respectively, mixed once, and 60 μL of sample was continuously transferred from the plate T60 to the quenching plate at each time point. For plate NCF60, after mixing once, 60 μL of the sample was transferred from incubation plate NCF60 to the quenching plate containing quenching solution at the 60-min time point. All sampling plates were shaken for 10 min, then centrifuged at 4000 rpm at 4° C. for 20 min. 80 μL of the supernatant was transferred to 240 μL of HPLC water, and mixed using a plate shaker for 10 min. Each bioanalytical plate was sealed and shaken for 10 min before LC-MS/MS analysis.

[4] = test system: R848-induced IL-6 secretion in human peripheral blood mononuclear cells (PBMCs); assay: Inhibition of R848-induced IL-6 secretion in human PBMCs (IL-6 ELISA); format: cell-based; settings: PBMC, R848 2.5 μg/mL, 20 h pre-incubation, 24 h stimulation
Description: This experiment was carried out in RPMI 1640 medium containing 10% FBS and 1% penicillin/streptomycin, with each of the compounds at an initial test concentration of 1 μM. The compound was dissolved in DMSO to prepare a stock solution, which was serially diluted into a series of working solutions with a 4-fold concentration gradient using the culture medium and then added to a 96-well plate at 10 μL per well. PBMCs (Batch No.: P122101102C; Milecell Biotechnology Inc.) were counted and diluted to a cell concentration of 1.25×10^6 cells/mL, and then added to the aforementioned compound-containing 96-well plate at 160 μL per well. The system was mixed well and incubated in a 5% CO2 incubator at 37° C. for 20 h. Then 10 μL of R848 (final concentration: 2.5 μg/mL) was added, and the culture was continued for 24 h in a 5% CO2 incubator at 37° C. After incubation, the 96-well plate was centrifuged at 2000 rpm for 4 min. The supernatant was collected and diluted 120-fold, then detected using an IL-6 ELISA kit. The OD450 values were read, and converted to IL-6 concentrations based on a standard curve.

[5] = test system: IMQ psoriasis model; assay: IMQ (imiquimod)-induced psoriasis model; format: in vivo, BALB/c mice; settings: Mean ± SD, n = 7; for PASI Score d 6: Model 8.85 ± 1.66; for ΔSkin Thickness Change (μm) d 6: Model 80.95 ± 6.16
Description: Male BALB/c mice, aged 6-8 weeks, were randomly divided into 9 groups after 1 week of acclimatization: blank control group, imiquimod model group (IMQ group, corresponding to the model groups in FIGS. 1 and 2), clobetasol propionate cream group (CLO group), TYKI (BMS-986165) group, IRAK4 protein degrader KT-474 (from patent WO2020113233) group (100 mg/kg), and the compound of the present disclosure (at an appropriate dose), with 6-7 mice in each group. One day before modeling, the hair on the backs of the mice was removed with depilatory cream, with a depilated area of 2×2 cm^2. On the day of modeling, IMQ cream was used for modeling, and the corresponding drugs were administered intragastrically for treatment. The compound of the present disclosure (at an appropriate dose) was administered intragastrically once daily, and IMQ cream was applied to the hairless area on the back and left ear of mice 2 h after the first administration. […] The blank group and the IMQ group were administered with vehicle intragastrically twice daily (in the morning and evening), with an 8-h interval between the two intragastric administrations. At 2 h after the first intragastric administration, vaseline and IMQ cream were applied topically to the depilated back and ears of the mice, respectively. The dosage of IMQ cream administered to the depilated area on the back and the left ear was 80 mg and 10 mg, respectively, and the mice in each group were administered the cream for 5 consecutive days.
Reference was made to the Psoriasis Area and Severity Index (PASI) scoring criteria. The psoriasis, erythema, and thickness of skin lesions on the back were scored from 0 to 4 every morning from day 1 of modeling, with the scoring criteria as shown in Table 28. The 3 were added up to obtain a total score, i.e., a total PASI score. The ear thickness of the left ear of the mouse was measured using a digital vernier caliper three times every morning from day 1 of modeling, to obtain a mean value.

Compound | DC50 [2] | pIC50 [1] | pIC50 [4] | further results
CN(C)c1cc2nn([C@H]3CC[C@H](CN4CC[C@H](n5cc6cc(F)c(C7CCC(=O)NC7=O)cc6n5)[C@H](F)C4)CC3)cc2cc1NC(=O)c1cnn2cccnc12 (stereo partly shown) [TM-136] | 1.71 nM | 8.18 | – | half-life at 1 µM [3]: 101 min
CN(C)c1cc2nn([C@H]3CC[C@H](CN4CC[C@@H](n5cc6cc(C7CCC(=O)NC7=O)c(F)cc6n5)[C@H](F)C4)CC3)cc2cc1NC(=O)c1cnn2cccnc12 (stereo partly shown) [TM-133] | 1.6 nM | 8.45 | – | half-life at 1 µM [3]: 107 min
CN(C)c1cc2nn([C@H]3CC[C@H](CN4CCC(c5nc6cc(N7CCC(=O)NC7=O)ccc6o5)CC4)CC3)cc2cc1NC(=O)c1cnn2cccnc12 [TM-185] | 3.22 nM | – | 8.05 | –
CN(C)c1cc2nn([C@H]3CC[C@H](CN4CC[C@@H](n5cc6ccc(C7CCC(=O)NC7=O)cc6n5)[C@H](F)C4)CC3)cc2cc1NC(=O)c1cnn2cccnc12 (stereo partly shown) [TM-152] | 1.09 nM | 8.03 | – | half-life at 1 µM [3]: 104 min
CN(C)c1cc2nn([C@H]3CC[C@H](CN4CC[C@H](n5cc6cc(C7CCC(=O)NC7=O)c(F)cc6n5)[C@@H](F)C4)CC3)cc2cc1NC(=O)c1cnn2cccnc12 (stereo partly shown) [TM-134] | 3 nM | 8.59 | – | half-life at 1 µM [3]: 114 min
Cn1c(=O)n(C2CCC(=O)NC2=O)c2cccc(C#CCOC3CCN(C[C@H]4CC[C@H](n5cc(NC(=O)c6cnn7ccc(N8C[C@H]9C[C@@H]8CO9)nc67)c(C(F)F)n5)CC4)CC3)c21 (stereo partly shown) [Positive compound, reference compound] | – | 8.52 | 7.92 | –
CN(C)c1cc2nn([C@H]3CC[C@H](CN4C[C@H](F)[C@@H](n5cc6cc(N7CCC(=O)NC7=O)ccc6n5)C4)CC3)cc2cc1NC(=O)c1cnn2cccnc12 [TM-207] | – | 7.39 | 7.99 | –
CN(C)c1cc2nn([C@H]3CC[C@H](CN4CCC(n5cc6cc(NC7CCC(=O)NC7=O)ccc6n5)CC4)CC3)cc2cc1NC(=O)c1cnn2cccnc12 (stereo partly shown) [TM-196] | 2.84 nM | – | 8.53 | –
CCC(=O)O[C@]1(C(=O)CCl)[C@@H](C)C[C@H]2[C@@H]3CCC4=CC(=O)C=C[C@]4(C)[C@@]3(F)[C@@H](O)C[C@@]21C [CLO, Clobetasol propionate, reference compound] | – | – | – | PASI Score d 6 ([5]; 160 mg/animal): 1.17 ± 0.85; ΔSkin Thickness Change (μm) d 6 ([5]; 160 mg/animal): −18.10 ± 6.33 μm
CN(C)c1cc2nn([C@H]3CC[C@H](CN4CC[C@@H](n5cc6cc(C7CCC(=O)NC7=O)ccc6n5)[C@H](F)C4)CC3)cc2cc1NC(=O)c1cnn2cccnc12 (stereo partly shown) [TM-167] | 1.17 nM | – | 8.37 | –
CN(C)c1cc2nn([C@H]3CC[C@H](CN4CC[C@H](n5cc6ccc(N7CCC(=O)NC7=O)cc6n5)C4)CC3)cc2cc1NC(=O)c1cnn2cccnc12 [TM-197] | 3.29 nM | – | 8.31 | –
CN(C)c1cc2nn([C@H]3CC[C@H](CN4CC[C@H](n5cc6cc(F)c(C7CCC(=O)NC7=O)cc6n5)[C@@H](F)C4)CC3)cc2cc1NC(=O)c1cnn2cccnc12 (stereo partly shown) [TM-138] | – | 8.16 | – | half-life at 1 µM [3]: 91 min
CN(C)c1cc2nn([C@H]3CC[C@H](CN4C[C@@H](F)[C@H](n5cc6c(F)cc(C7CCC(=O)NC7=O)cc6n5)C4)CC3)cc2cc1NC(=O)c1cnn2cccnc12 (stereo partly shown) [TM-237] | – | 7.78 | 7.60 | –
Deucravacitinib [TYKi, reference compound] | – | – | – | PASI Score d 6 ([5]; 30 mg/kg, BID): 4.32 ± 2.42; ΔSkin Thickness Change (μm) d 6 ([5]; 30 mg/kg, BID): 53.57 ± 15.87 μm

More lines, main results first:

DC50 [2] | Compound | pIC50 [1] | pIC50 [4] | further results
0.95 nM | CN(C)c1cc2nn([C@H]3CC[C@H](CN4C[C@@H](F)[C@@H](n5cc6ccc(N7CCC(=O)NC7=O)cc6n5)C4)CC3)cc2cc1NC(=O)c1cnn2cccnc12 [TM-202] | – | 8.44 | –
1.42 nM | CN(C)c1cc2nc([C@H]3CC[C@H](CN4C[C@@H](n5cc6cc(N7CCC(=O)NC7=O)ccc6n5)[C@@H](F)C4)CC3)cn2cc1NC(=O)c1cnn2cccnc12 [TM-230] | – | 8.16 | –
0.86 nM | CN(C)c1cc2nn([C@H]3CC[C@H](CN4CC[C@@H](n5cc6ccc(N7CCC(=O)NC7=O)cc6n5)C4)CC3)cc2cc1NC(=O)c1cnn2cccnc12 [TM-198] | – | 7.68 | –
< 1 nM | CN(C)c1cc2nc([C@H]3CC[C@H](CN4CCC(n5cc6c(F)cc(N7CCC(=O)NC7=O)cc6n5)CC4)CC3)cn2cc1NC(=O)c1cnn2cccnc12 [TM-231] | – | 7.94 | –
3.77 nM | CN(C)c1cc2nn(C3CCC(CN4C[C@@H](F)[C@H](n5cc6cc(N7CCC(=O)NC7=O)ccc6n5)C4)CC3)cc2cc1NC(=O)c1cnn2cccnc12 (stereo partly shown) [TM-208] | – | 7.97 | –
3.23 nM | CN(C)c1cc2nn([C@H]3CC[C@H](CN4CCC[C@@H](n5cc6cc(N7CCC(=O)NC7=O)ccc6n5)C4)CC3)cc2cc1NC(=O)c1cnn2cccnc12 [TM-211] | – | 8.76 | –
0.87 nM | CN(C)c1cc2nn([C@H]3CC[C@H](CN4C[C@@H](n5cc6ccc(N7CCC(=O)NC7=O)cc6n5)[C@@H](F)C4)CC3)cc2cc1NC(=O)c1cnn2cccnc12 [TM-199] | – | 7.59 | –
